# Like-named read-outs stand apart in the source and are kept apart here.
# How the values were obtained:
# [1] = test system: phospho-akt (Thr308) in PC-3 cells; experiment: Inhibition of phospho-akt (Thr308) in PC-3 cells, MSD phospho-akt 308 ELISA kit; type: cell-based; settings: 2 hours, no serum, read-out: EC50
# Protocol: PC-3 cells were harvested by trypsin and counted. Cells were plated in coated 96-well flat bottom plates (plate 15,000 cells/well in 100 ul growth media (10% FBS, 1× pen-strep) an place in an incubator overnight.
# Subject inhibitors were stocked at 50 mM, then diluted to 30 mM (4.8 μl cpd plus […] DMSO) in 100% DMSO. Three-fold dilutions were performed from 30 mM stock. (4 μl into 8 ul 100% DMSO). Aliquots of 1.0 μl of inhibitor solution were transferred into SF Medium (using deep well block).
# Control wells were prepared as follows. For DMSO high controls, 1.0 μl of 100% DMSO was added into 1.0 ml SF. For low controls for PC-3 cells, 5 μM of Wortmannin (10 μl of 1 mM Wortmannin stock was added into 2 ml SF Medium. The supernatant media was removed and the plate was blotted. 100 μl of controls/media or compound/media were added to cells and placed in incubator for 2 hours. The supernatant media was removed and the plate was blotted. 55 μl of the MSD complete lysis buffer was added (10 mls Tris Lysis buffer, 200 ul protease inhibitor, 100 ul phosphatase inhibitor 1, and 100 ul phosphatase inhibitor II). The plate was placed on a plate shaker for 60 mins at 4 deg.
# MSD plates were blocked for 1 hour by adding 150 μl of Blocking Solution (3% BSA) to each well. The MSD plates were washed 4× with TBST, and 50 μl lysates were transferred to MSD plate and place on plate shaker shake at 4 degrees O/N, light shaking (speed 3.5). The plate was washed 4× with TBST.
# 25 μl of Ab detection solution was added to each well. The plate was sealed and incubated 1 hr RT, light shaking (speed 3.5). The plate was washed 4 times with TBST. 150 μl of Read Buffer was added (5 mls 4×MSD Read Buffer+15 mls water). Finally the plate was read immediately on the MSD plate reader.
# PDK1 = PDK1 (Homo sapiens (Human), UniProt O15530); experiment: PDK1 kinase assay (coupled PDK1/AKT/FAM-crosstide assay, IMAP fluorescence polarization); type: biochemical
# Sequence of PDK1 (O15530 51-359): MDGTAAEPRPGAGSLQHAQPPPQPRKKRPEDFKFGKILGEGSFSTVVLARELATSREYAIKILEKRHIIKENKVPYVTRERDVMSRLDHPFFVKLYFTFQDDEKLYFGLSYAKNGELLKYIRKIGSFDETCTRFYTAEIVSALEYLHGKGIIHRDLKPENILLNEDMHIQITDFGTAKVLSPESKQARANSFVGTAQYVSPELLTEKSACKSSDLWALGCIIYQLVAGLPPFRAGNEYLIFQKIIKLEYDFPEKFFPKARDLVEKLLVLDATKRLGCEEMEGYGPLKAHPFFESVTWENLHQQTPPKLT
# Protocol: A PDK1 kinase assay was performed as follows. PDK1 (amino acids 51-359) and AKT2 (amino acids 140-467 fused to PIFtide, amino acids […]) were expressed as N-terminally tagged GST fusion proteins in insect cells and purified to homogeneity. Enzyme activity was determined in a coupled PDK1/AKT/FAM-crosstide assay and phosphorylation of FAM-crosstide was determined by standard IMAP protocol (Molecular Devices). For inhibition studies, compounds were titrated 4-fold in DMSO and diluted 40-fold into assay buffer (10 mM Tris HCl pH7.2; 10 mM MgCl2; 0.01% Triton X-100; 1 mM DTT) containing PDK1, AKT2, and FAM-crosstide (final concentrations: 0.75 nM PDK1, 10 nM unphosphorylated AKT2, and 100 nM crosstide substrate). The kinase reaction was initiated by adding ATP to a final concentration of 40 μM of PDK1 and incubated at 25° C. for 30 min. To detect assay product, the kinase reaction was combined with Progressive Binding Solution (1:600 Progressive Binding Reagent, 50% Buffer A, 50% Buffer B, Molecular Devices) in a 1:3 ratio. The mixture was incubated for 2 hours at 25° C. and the plate was scanned on an Analyst AD with excitation at 485 nm and emission at 530 nm. The fluorescence polarization value “P” is defined by the equation below. The value “mP” is generated by multiplying the P value for each reaction well by a factor of 1000. The value “ΔmP” for each well is the mP value for that well minus the mP value for the average negative control. P=(Fpar−Fperp)/(Fpar+Fperp) Eq.:
# Where “par” is fluorescence intensity parallel to the excitation plane; and “perp” is fluorescence intensity perpendicular to the excitation plane. ΔmP values were plotted as a function of compound concentration and the data were analyzed with a 4-parameter fit using GraphPad Prism software.
# [2] = Homo sapiens, inhibition of P308 Akt in PC-3 cells, MSD
# [3] = inhibition of phospo-PDK1 in vitro
# [4] = inhibition of P308 Akt in PC-3 cells using MSD
Molecule,"EC50 [1, 2] [µM]",IC50 (PDK1; [3]) [µM],further results
C[C@H](NC(=O)c1cc(F)cnc1NCc1ccc(-c2cc3c(N)ncnc3cn2)s1)c1ccc(F)cc1,1 to 10,0.1 to 1,–
C[C@H](NC(=O)c1cc(S(C)(=O)=O)cnc1NCc1ccc(-c2ccc3ncnc(N)c3c2)s1)c1ccc(F)c(F)c1,< 1,0.1 to 1,–
"2-(4-(3-amino-1H-pyrazolo [3,4-b]pyridin-5-yl) benzylamino)-N-(thiazol- 4-yl)-5-(trifluoromethyl) nicotinamide [Example 287]",–,–,"EC50 [1, 4]: > 10 µM; IC50 (PDK1; inhibition of PDK1 in vitro): 0.1 to 1 µM"
"C[C@H](NC(=O)c1nc(C#N)cnc1NCc1ccc(-c2cnc(N)c(CCC3CCNC3)n2)cc1)c1ccc(F)c(F)c1 (single isomer, unassigned) [Example 79]",–,–,"EC50 ([1]; Homo sapiens, PC-3, 2 h, inhibition of P308 Akt in PC-3 cells using MSD): < 1 µM; IC50 (PDK1; inhibition of PDK1 in vitro): < 0.1 µM"
"C[C@H](NC(=O)c1nc(C#N)cnc1NCc1ccc(-c2cnc(N)c(CCC3CCNC3)n2)cc1)c1ccc(F)c(F)c1 (single isomer, unassigned) [Example 80]",–,–,"EC50 [1, 4]: 1 to 10 µM; IC50 (PDK1; inhibition of PDK1 in vitro): < 0.1 µM"
"CC(Nc1ncc(C#N)nc1C(=O)N[C@@H](C)c1ccc(F)c(F)c1)c1ccc(-c2cnc3[nH]nc(N)c3c2)cc1 (stereo in doubt) [Example 350, 3-((R)-1-(4-(3-amino-1H-pyrazolo[3,4-b]pyridin-5-yl)phenyl)ethylamino)-6-cyano-N-((S)-1-(3,4-difluorophenyl)ethyl) pyrazine-2-carboxamide]",–,–,"EC50 ([1]; Homo sapiens, inhibition of P308 Akt in PC-3 cells using MSD): > 10 µM; IC50 (PDK1; inhibition of PDK1 in vitro): > 5 µM"
CCOC(=O)c1cccnc1NCc1cc(OC(C)C)cc(-c2cn(S(=O)(=O)c3ccccc3)c3ncc(C(=O)NC4CC4)cc23)c1 [4.1.17],–,> 5,"EC50 ([1]; inhibition of P308 Akt in PC-3 cells, MSD): > 10 µM"
"Nc1ncnc2ccc(-c3ccccc3CNc3ncccc3C(=O)NCc3ccc(F)c(F)c3)cc12 [Ex. 6.5, 2-{[2-(4-aminoquinazolin-6-yl)benzyl]amino}-N-(3,4-difluorobenzyl) pyridine-3-carboxamide]",1 to 10,> 5,–
"Nc1ncnc2ccc(-c3ncc(CNc4ncccc4C(=O)NCc4ccc(F)c(F)c4)s3)cc12 [Ex. 6.6, 2-({[2-(4-aminoquinazolin-6-yl)-1,3-thiazol-5-yl]methyl}amino)-N-(3,4-difluoro-benzyl) pyridine-3-carboxamide]",> 10,< 0.1,–
"Nc1ncnc2ccc(-c3csc(CNc4ncccc4C(=O)NCc4ccc(F)c(F)c4)n3)cc12 [Ex. 6.7, 2-({[4-(4-aminoquinazolin-6-yl)-1,3-thiazol-2-yl]methyl}amino)-N-(3,4-difluoro-benzyl) pyridine-3-carboxamide]",> 10,< 0.1,–
"Nc1ncnc2ccc(-c3nc(CNc4ncccc4C(=O)NCc4ccc(F)c(F)c4)cs3)cc12 [Ex. 6.8, 2-({[2-(4-aminoquinazolin-6-yl)-1,3-thiazol-4-yl]methyl}amino)-N-(3,4-difluoro-benzyl) pyridine-3-carboxamide]",> 10,< 0.1,–
"O=C(NCc1ccc(F)c(F)c1)c1cccnc1NCc1csc(-c2ccc3ncnc(NC4CC4)c3c2)n1 [Ex. 6.9, 2-[({2-[4-(cyclopropyl-amino)quinazolin-6-yl)-1,3-thiazol-4-yl}methyl)amino]-N-(3,4-difluorobenzyl) pyridine-3-carboxamide]",> 10,< 0.1,–
"O=C(NCc1ccc(F)c(F)c1)c1cccnc1NCc1cnc(-c2c[nH]c3ncccc23)s1 [Ex. 6.10, N-(3,4-difluorobenzyl)-2-({[2-(1H-pyrrolo[2,3-b]pyridin-3-yl)-1,3-thiazol-5-yl]methyl}amino) pyridine-3-carboxamide]",1 to 10,0.1 to 1,–
"O=C(NCc1ccc(F)c(F)c1)c1cccnc1NCc1nc(-c2c[nH]c3ncccc23)cs1 [Ex. 6.11, N-(3,4-difluorobenzyl)-2-({[4-(1H-pyrrolo[2,3-b]pyridin-3-yl)-1,3-thiazol-2-yl]methyl}amino) pyridine-3-carboxamide]",1 to 10,0.1 to 1,–
"O=C(NCc1ccc(F)c(F)c1)c1cccnc1NCc1csc(-c2c[nH]c3ncccc23)n1 [Ex. 6.12, N-(3,4-difluorobenzyl)-2-({[2-(1H-pyrrolo[2,3-b]pyridin-3-yl)-1,3-thiazol-4-yl]-methyl}amino) pyridine-3-carboxamide]",< 1,< 0.1,–
"O=C(NCc1ccc(F)c(F)c1)c1cccnc1NCc1csc(-c2c[nH]c3ncncc23)n1 [Ex. 6.13, N-(3,4-difluorobenzyl)-2-({[2-(7H-pyrrolo[2,3-d]pyrimidin-5-yl)-1,3-thiazol-4-yl]-methyl}amino) pyridine-3-carboxamide]",> 10,0.1 to 1,–
"Nc1ncnc2ccc(-c3csc(CNc4ncccc4C(=O)NCc4ccc(F)c(F)c4)c3)cc12 [Ex. 6.14, 2-({[4-(4-aminoquinazolin-6-yl)thiophen-2-yl]methyl}amino)-N-(3,4-difluoro-benzyl) pyridine-3-carboxamide]",1 to 10,< 0.1,–
"O=C(NCc1ccc(F)c(F)c1)c1cccnc1NCc1cc(-c2c[nH]c3ncccc23)cs1 [Ex. 6.15, N-(3,4-difluorobenzyl)-2-({[4-(1H-pyrrolo[2,3-b]pyridin-3-yl)thiophen-2-yl]-methyl}amino) pyridine-3-carboxamide]",> 10,0.1 to 1,–
Nc1ncnc2ccc(-c3cnc(CNc4ncccc4C(=O)NCc4ccc(F)c(F)c4)s3)cc12 [Ex. 7.1],1 to 10,0.1 to 1,–
CC(Nc1ncccc1C(=O)NCc1ccc(F)c(F)c1)c1ccc(-c2ccc3ncnc(N)c3c2)s1 (stereo not shown) [Ex. 7.2],–,0.1 to 1,"EC50 ([1]; Homo sapiens, PC-3, 2 h, inhibition of P308 Akt in PC-3 cells, MSD): 1 to 10 µM"
Nc1ncnc2ccc(-c3ccc(CNc4ncc(F)cc4C(=O)NCc4ccc(F)c(F)c4)s3)cc12 [Ex. 7.3.1],< 1,< 0.1,–
"COc1ccnc(NCc2ccc(-c3ccc4ncnc(N)c4c3)s2)c1C(=O)NCc1ccc(F)c(F)c1 [Ex. 7.4, 2-({[5-(4-aminoquinazolin-6-yl)thiophen-2-yl]methyl}amino)-N-(3,4-difluorobenzyl)-4-methoxypyridine-3-carboxamide]",> 10,0.1 to 1,–
"CCOc1ccnc(NCc2ccc(-c3ccc4ncnc(N)c4c3)s2)c1C(=O)NCc1ccc(F)c(F)c1 [Ex. 7.5, 2-({[5-(4-aminoquinazolin-6-yl)thiophen-2-yl]methyl}amino)-N-(3,4-difluorobenzyl)-4-ethoxypyridine-3-carboxamide]",> 10,0.1 to 1,–
"O=C(NC1CC1)c1cccnc1NCc1cccc(-c2c[nH]c3ncccc23)c1 [Example 1.12, N-cyclopropyl-2-{[3-(1H-pyrrolo [2,3-b]pyridin-3-yl)benzyl]amino} pyridine-3-carboxamide]",–,> 5,–
"C[C@H](NC(=O)c1cccnc1NCc1ccc(-c2ccc3ncncc3c2)s1)c1ccc(F)cc1 [Example 2.11, (S)-N-(1-(4-fluorophenyl)ethyl)-2-(((5-(quinazolin-6-yl)thiophen-2-yl)methyl)amino)nicotinamide]",–,0.1 to 1,–
"Nc1ncnc2ccc(-c3ccc(CNc4ncccc4S(=O)(=O)NCc4ccc(F)c(F)c4)s3)cc12 [Example 20.2, 2-(((5-(4-aminoquinazolin-6-yl)thiophen-2-yl)methyl)amino)-N-(3,4-difluorobenzyl)pyridine-3-sulfonamide]",–,> 5,–

# — patent publication US10030016B2 (Sunesis Pharmaceuticals, Inc., priority 2009, dated 2018)
